In patent publication US20210275514A1, “COMPOUNDS FOR USE IN TREATING KIDNEY DISORDERS” (Hoffmann-La Roche Inc., priority 2018, published 2021):
Entries after “also recorded” stand apart in the source; their conditions may differ.

Tested on: ABCA1
Experiment: ABCA1 expression by western blot in differentiated podocytes
Assay type: cell-based, human
Settings: 18 h
Method: Podocytes differentiated for 14 days were starved in RPMI-0.2% FBS for 18 h and then treated with freshly prepared dilutions of compounds in full media for 18 h at 37° C. and 5% CO2. Compound concentrations of 1 μM, 5 μM and 10 μM were evaluated. Cells were then washed with PBS and lysed with 1× cell lysis buffer (Cell Signaling) supplemented with protease and phosphatase inhibitor cocktails (Roche). Total protein content was determined by BCA method (Pierce, Thermoscientific). ABCA1 expression was analyzed by western blot.
Lysates, or cell fractions were incubated with buffer sample at 55° C. for 10 min under reducing conditions. A total of […] of protein in lysates, and one third of the volume collected in cell fraction preps, were separated by SDSPAGE in 4-20% gels (Biorad) and proteins were then transferred to PVDF membranes. Membranes were blocked with 5% milk and blotted with protein-specific antibodies for 18 h at 4° C. The following antibodies were used: mouse anti-ABCA1 (Abcam; 1:1,000), rabbit anti-GAPDH antibody (Millipore; 1:10,000), rabbit anti-MEK and anti-Na^+/K^+ ATPase (Cell Signaling; 1:1,000). After washing with PBS-T, membranes were incubated with anti-mouse and anti-rabbit specific antibodies conjugated to HRP (Promega) 1:10,000 in 5% milk. Membranes were washed and signal was developed using Western bright ECL substrate (Advansta).

| Structure (SMILES) | ABCA1 expression (western blot, whole cell lysates) (doses as low as 1 uM, FIG. 4A) | ABCA1 expression (western blot, whole cell lysates) (1 μM, 5 μM and 10 μM evaluated) |
| --- | --- | --- |
| O=C(O)c1ccc(-c2nnc([C@](F)([C@H]3Cc4[nH]c5ccc(Cl)cc5c4C3)S(=O)(=O)c3cccc(Br)c3)o2)cc1 (racemic) [Cpd D, 4-{5-[(RS)-(3-Bromo-benzenesulfonyl)-((SR)-7-chloro-1,2,3,4-tetrahydro-cyclopenta[b]indol-2-yl)-fluoro-methyl]-[1,3,4]oxadiazol-2-yl}-benzoic acid] | strong induction; also recorded: markedly increased | – |
| Cc1nnc([C@](F)([C@H]2Cc3[nH]c4ccc(Cl)cc4c3C2)S(=O)(=O)c2ccccc2)o1 [Cpd E, (R)-2-[(S)-Benzenesulfonyl-fluoro-(5-methyl-[1,3,4]oxadiazol-2-yl)-methyl]-7-chloro-1,2,3,4-tetrahydro-cyclopenta[b]indole] | strong induction; also recorded: markedly increased | – |
| O=C(Nc1cncnc1)c1ccc(OCC(F)(F)F)c(-c2ccc(Cl)cc2)n1 [Cpd F, 6-(4-chlorophenyl)-N-(pyrimidin-5-yl)-5-(2,2,2-trifluoroethoxy)picolinamide] | – | only Cpd A, and Cpd G, increased ABCA1 expression |
